Data taken from publication PMC8041284, “Tunable Methacrylamides for Covalent Ligand Directed Release Chemistry” (Journal of the American Chemical Society, 2021).
Read-outs that look alike come from different tables or passages of the source. Where no end group is shown, it is not given here.

Target: BTK (Homo sapiens, UniProt Q06187)
Test: biochemical
[1] = read-out: BTK inhibition (%), 0.75 uM BTK, […] probe 3l, 15 min preincubation

BTK, sequence (Q06187 402-655 limits assumed): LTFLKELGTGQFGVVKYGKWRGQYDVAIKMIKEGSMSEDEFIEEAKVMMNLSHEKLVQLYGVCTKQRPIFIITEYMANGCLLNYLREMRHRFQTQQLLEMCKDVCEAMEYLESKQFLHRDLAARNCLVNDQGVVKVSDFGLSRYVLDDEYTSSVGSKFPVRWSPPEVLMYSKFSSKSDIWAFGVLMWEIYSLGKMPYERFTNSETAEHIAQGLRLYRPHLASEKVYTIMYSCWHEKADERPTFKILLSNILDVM

| Molecule | inhibition at 10 µM [1] | inhibition at 10 µM (read-out: BTK inhibition (%)) |
| --- | --- | --- |
| NC(=O)CCCSc1nc(N)nc(-c2c(Cl)cc3c4c(cccc24)COC3)n1 [PCM-0095776] | -2.3% |  |
| C=CC[C@@H]1/C=C(\C)C[C@H](C)C[C@H](OC)[C@H]2O[C@@](O)(C(=O)C(=O)N3CCCC[C@H]3C(=O)O[C@H](/C(C)=C/[C@@H]3CC[C@@H](O)[C@H](OC)C3)[C@H](C)[C@@H](O)CC1=O)[C@H](C)C[C@@H]2OC [PCM-0214806] | -2.8% |  |
| COc1cc2c(Nc3ccc(NC(=O)c4ccccc4)cc3)ncnc2cc1OCCCN1CCOCC1 [PCM-0094881] | 77.9% |  |
| O=C(c1cc(Cc2n[nH]c(=O)c3ccccc23)ccc1F)N1CCN(C(=O)C2CC2)CC1 [PCM-0094988] | 9.7% |  |
| O=C1Cc2ccccc2N1 [PCM-0215133] | 1.6% |  |
| COc1cc(C(=O)O)cc(OC)c1OC [PCM-0215032] | -21% |  |
| OC[C@H]1O[C@@](CO)(OC[C@@]2(OC[C@@]3(O[C@H]4O[C@H](CO)[C@@H](O)[C@H](O)[C@H]4O)O[C@H](CO)[C@@H](O)[C@@H]3O)O[C@H](CO)[C@@H](O)[C@@H]2O)[C@@H](O)[C@@H]1O [PCM-0216359] | 7.7% |  |
| C=C1CC[C@@H]2[C@](C)(CO)[C@H](O)CC[C@@]2(C)[C@@H]1C/C=C1/C(=O)OC[C@H]1O [PCM-0094814] | -6.2% |  |
| NNc1nncc2ccccc12 [PCM-0065163] | -0.9% |  |
| Nc1ncnc2c1ccn2[C@@H]1O[C@H]([C@H](O)c2ccccc2)[C@@H](O)[C@H]1O [PCM-0215960] | 13.1% |  |
| C=CCSC[C@H](N)C(=O)O [PCM-0215956] | 3.4% |  |
| C[Si](C)(C)CCOCn1ccc2c(-c3cn[nH]c3)ncnc21 [PCM-0216552] | -40.9% |  |
| CCOc1cc(CC(=O)N[C@@H](CC(C)C)c2ccccc2N2CCCCC2)ccc1C(=O)O [PCM-0086171] | 17.1% |  |
| Nc1ccc(Oc2ccc(-c3ccc(Oc4ccc(N)cc4)cc3)cc2)cc1 [PCM-0216586] | -7.7% |  |
| NC[C@@H]1O[C@H](O[C@H]2[C@@H](O)[C@H](O[C@@H]3[C@@H](O)[C@H](N)C[C@H](N)[C@H]3O[C@H]3O[C@H](CN)[C@@H](O)[C@H](O)[C@H]3N)O[C@@H]2CO)[C@H](N)[C@@H](O)[C@@H]1O [PCM-0095358] | 4.3% |  |
| RKDVY [PCM-0214887] | 4.8% |  |
| COc1c2c(cc3oc(CO[C@@H]4O[C@H](CO)[C@@H](O)[C@H](O)[C@H]4O)cc(=O)c13)O[C@H](C(C)(C)O)C2 [PCM-0216346] | 7.7% |  |
| O=C(NC[C@H](O)CN1CCc2ccccc2C1)c1cc(NC2COC2)ncn1 [PCM-0215447] | 1.5% |  |
| Cc1sc2c(c1C)C(c1ccc(Cl)cc1)=N[C@@H](CC(=O)OC(C)(C)C)c1nnc(C)n1-2 [PCM-0095747] |  | 10.8% |
| C[C@]12CC[C@@H]3c4ccc(O)cc4CC[C@H]3[C@@H]1C[C@@H](O)[C@@H]2O [PCM-0086283] | 5.4% |  |
| Cn1nccc1Nc1nccc(-c2cc3c(s2)C(C)(C)N(CCN2CCOCC2)C3=O)n1 [PCM-0215875] | 6.9% |  |
| C[C@@H](NC(=O)c1ncnc(N)c1Cl)c1ncc(C(=O)Nc2cc(C(F)(F)F)c(Cl)cn2)s1 [PCM-0215620] | -12.4% |  |
| Cn1cncc1[C@@](N)(c1ccc(Cl)cc1)c1ccc2c(c1)c(-c1cccc(Cl)c1)cc(=O)n2C [PCM-0095125] | 17.9% |  |
| COc1ccccc1OCC(O)COC(N)=O (centres unmarked) [PCM-0085814] | 14.8% |  |
| Cc1ccc(C(=O)Cn2c3c(sc2=N)CCCC3)cc1 [PCM-0095433] | -11.7% |  |

| Molecule | inhibition at 10 µM [1] | inhibition at 10 µM (read-out: BTK inhibition (%)) |
| --- | --- | --- |
| CC(C)=CCC[C@](C)(O)[C@H]1CC[C@]2(C)[C@@H]1[C@H](O)C[C@@H]1[C@@]3(C)CC[C@H](O[C@@H]4O[C@H](CO)[C@@H](O)[C@H](O)[C@H]4O)C(C)(C)[C@@H]3CC[C@]12C [PCM-0216344] | 7.7% |  |
| CC(=O)O[C@@H]1CC[C@@]2(C)[C@@H](CC[C@]3(C)[C@@H]2C(=O)C=C2[C@@H]4[C@@H](C)[C@H](C)CC[C@]4(C)CC[C@]23C)[C@@]1(C)C(=O)O [PCM-0216599] | 88% |  |
| Cc1cccc(C)c1NC(=O)C1CCCCN1C (centres unmarked) [PCM-0086182] | 3.4% |  |
| CCS(=O)(=O)c1cccc(-c2cc(C(=O)NC3CCN(C)CC3)c(C)c3[nH]c4ncc(C)cc4c23)c1 [PCM-0095437] | 93.1% |  |
| Nc1cc(C(Cl)=C(Cl)Cl)c(S(N)(=O)=O)cc1S(N)(=O)=O [PCM-0086106] | -3.9% |  |
| COc1cc2c(Oc3ccc4[nH]c(C)cc4c3F)ccnc2cc1OCC1(N)CC1 [PCM-0216115] | 39.4% |  |
| O=C(O)/C=C/CCCCCCCO [PCM-0214957] | 3.4% |  |
| O=c1cc(-c2ccc(O)cc2)oc2cc(O)cc(O)c12 [PCM-0064643] | 63.8% |  |
| O=C(Nc1ccc([N+](=O)[O-])cc1)Nc1ccc([N+](=O)[O-])cc1 [PCM-0215156] | -14% |  |
| CCN(C)S(=O)(=O)Nc1ccc(F)c(C(=O)c2c[nH]c3ncc(-c4cnc(C5CC5)nc4)cc23)c1F [PCM-0215639] | 75.9% |  |
| CO[C@H]1/C=C/O[C@@]2(C)Oc3c(C)c(O)c4c(O)c(c5c(nc6cc(C)ccn65)c4c3C2=O)NC(=O)/C(C)=C\C=C\[C@H](C)[C@H](O)[C@@H](C)[C@@H](O)[C@@H](C)[C@H](OC(C)=O)[C@@H]1C [PCM-0086183] | 10.1% |  |
| CC(C)N(CCC(C(N)=O)(c1ccccc1)c1ccccn1)C(C)C (centres unmarked) [PCM-0065027] | 5.4% |  |
| O=C1O[C@H]2[C@@H]3OC(=O)c4cc(O)c(O)c(O)c4-c4c(cc(O)c(O)c4O)C(=O)OC[C@H]2O[C@@H](OC(=O)c2cc(O)c(O)c(O)c2)[C@@H]3OC(=O)c2cc(O)c(O)c3c2[C@@H]2C1=CC(=O)[C@](O)(O3)C2(O)O [PCM-0216302] | 0% |  |
| CC(=O)OC(C)(C)CCC(=O)[C@](C)(O)[C@H]1[C@H](O)C[C@@]2(C)[C@@H]3CC=C4[C@@H](C[C@H](O)[C@@H](O)C4(C)C)[C@]3(C)C(=O)C[C@]12C [PCM-0214543] | -13.8% |  |
| CCc1c(C(=O)NCCc2ccc(N3CCCCC3)cc2)[nH]c2ccc(Cl)cc12 [PCM-0214697] | 2.3% |  |
| CN1C(=O)CCS(=O)(=O)C1c1ccc(Cl)cc1 (centres unmarked) [PCM-0065261] | -14% |  |
| COc1ccc(C(=O)O)cc1O [PCM-0215975] | -13.9% |  |
| CNCC[C@H](Oc1cccc2ccccc12)c1cccs1 [PCM-0090599] | -1.6% |  |
| O=C(c1ccccc1)c1ccc2n1CCC2C(=O)O (centres unmarked) [PCM-0065461] | -11.7% |  |
| OC(c1ccccc1)(c1ccccc1)C1CCNCC1 [PCM-0085781] |  | -14% |
| COc1ncnc(NS(=O)(=O)c2ccc(N)cc2)c1OC [PCM-0086280] | 0.8% |  |
| OC[C@H]1O[C@@H](O[C@@H]2OC=C[C@H]3[C@H](O)[C@@H]4O[C@]4(CO)[C@@H]23)[C@H](O)[C@@H](O)[C@@H]1O [PCM-0215028] | 26.2% |  |
| NCCC[C@H](N)C(=O)O [PCM-0216253] | -3.4% |  |
| C=C[C@@H]1CNC(=S)O1 [PCM-0216374] | -6.2% |  |
| O=C(Nc1cccc2c(=O)cc(-c3nn[nH]n3)oc12)c1ccc(OCCCCc2ccccc2)cc1 [PCM-0095155] | 73.8% |  |

| Molecule | inhibition at 10 µM [1] | inhibition at 10 µM (read-out: BTK inhibition (%)) |
| --- | --- | --- |
| C#Cc1cccc(Nc2ncnc3cc4c(cc23)OCCOCCOCCO4)c1 [PCM-0095422] | -16.6% |  |
| COC(=O)[C@@]1(C)CC[C@]2(C(=O)O)CC[C@]3(C)C(=CC[C@@H]4[C@@]5(C)C[C@H](O)[C@H](O[C@@H]6OC[C@@H](O[C@@H]7O[C@H](CO)[C@@H](O)[C@H](O)[C@H]7O)[C@H](O)[C@H]6O)[C@@](C)(CO)[C@@H]5CC[C@]43C)[C@@H]2C1 [PCM-0216472] | 2.3% |  |
| O=S1(=O)CCN(CN2CCS(=O)(=O)NC2)CN1 [PCM-0215138] | 0% |  |
| NC(=O)C[C@H](N)C(=O)O [PCM-0216200] | 13.6% |  |
| COc1ccccc1OCC(O)CO (centres unmarked) [PCM-0086515] | -2.3% |  |
| CS(=O)(=O)Nc1ccc([N+](=O)[O-])cc1OC1CCCCC1 [PCM-0215740] | 3.4% |  |
| COc1ccc([C@@H]2OC[C@H]3[C@@H]2CO[C@@H]3c2ccc(O[C@@H]3O[C@H](CO)[C@@H](O)[C@H](O)[C@H]3O)c(OC)c2)cc1OC [PCM-0215021] | -6.2% |  |
| OC(Cn1cncn1)(Cn1cncn1)c1ccc(F)cc1F [PCM-0086230] | 9.3% |  |
| COc1cc2ncnc(Nc3ccc(F)c(Cl)c3)c2cc1OCCCN1CCOCC1 [PCM-0086349] | 2.1% |  |
| CC(C(=O)O)c1cccc(C(=O)c2ccccc2)c1 (centres unmarked) [PCM-0065500] | -17.9% |  |
| CN[C@@H](C)C(=O)N[C@H]1CN(C(=O)CC(C)C)CC[C@H]2CC[C@@H](C(=O)NC(c3ccccc3)c3ccccc3)N2C1=O [PCM-0214841] | -9.3% |  |
| CCOCc1nc2c(N)nc3ccccc3c2n1CC(C)(C)O [PCM-0215576] | 15.2% |  |
| NS(=O)(=O)c1cc(C(=O)O)c(NCc2ccco2)cc1Cl [PCM-0085991] | -2.3% |  |
| COc1cc(NC(=O)c2ccc(-c3ccc(Cl)cc3)o2)cc(OC)c1 [PCM-0095366] | 56.8% |  |
| CCCCCCCCCCCCCCCc1cccc(O)c1C(=O)O [PCM-0215370] | -19.3% |  |
| COC(=O)CCC(=O)CN [PCM-0216554] | -7.7% |  |
| CCCCCCCCCC(C)O (centres unmarked) [PCM-0216633] | -30.1% |  |
| Cc1[nH]c(/C=C2\C(=O)Nc3ccc(F)cc32)c(C)c1C(=O)NCCN1CCCC1 [PCM-0216233] | 18.7% |  |
| CN(C)Cc1cccc(N=C(c2ccccc2)c2c(O)[nH]c3cc(C(=O)N(C)C)ccc23)c1 [PCM-0095091] | 1.4% |  |
| CN[C@H](CC(=O)O)C(=O)O [PCM-0065539] | -10% |  |
| NC(CO)C(=O)O (centres unmarked) [PCM-0216194] | 1.7% |  |
| CC(C)(C)Cn1c(N)nc2ccc(-c3[nH]c(C(C)(C)C)nc3-c3ccc(F)cc3)nc21 [PCM-0095175] | -5.1% |  |
| C[C@@H](NCCCc1cccc(C(F)(F)F)c1)c1cccc2ccccc12 [PCM-0095032] | 24.1% |  |
| COc1ccccc1N1CCN(CCCNc2cc(=O)n(C)c(=O)n2C)CC1 [PCM-0064976] | -0.8% |  |
